Data: paper PMC5515969, “Effects of 31 FDA approved small-molecule kinase inhibitors on isolated rat liver mitochondria” (Archives of Toxicology, 2016)
Read-outs that look alike come from different tables or passages of the source.

Legend:
[1] = test system: isolated rat liver mitochondria; assay: Mitochondrial oxygen consumption (glutamate/malate or succinate driven, state 4 and state 3); assay type: biochemical; conditions: DMSO treated samples set as 1; on State 3 respiration driven by succinate at 10XCmax: key: 0 indicates that the drug had no effects (negative); on State 3 respiration driven by succinate at 1XCmax: key: 0 indicates that the drug had no effects (negative)
Method in brief: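 Oxygen uptake on glutamate/malate or on succinate defined state 4; ADP added 3 min later gave state 3. Mitochondria isolated from rat liver by differential centrifugation, adjusted to 1 mg/ml and pretreated 5 min with inhibitor (0.1% DMSO final). Values relative to DMSO control, set to 1.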

RCC II = biological target: T1, RCC II (Rattus norvegicus, UniProt P21913+Q641Z9+Q6PCT8+Q920L2); assay: RCC II activity in submitochondrial particles; assay type: biochemical; set-up: key: activity relative to DMSO-treated controls (control set as 1 = 100%); conditions: DMSO treated samples set as 1
T1 construct: Submitochondrial particles were prepared by subjecting the intact mitochondria to three successive freeze–thaw cycles; from tissue; host or cells: rat liver mitochondria, used as submitochondrial particles
T1 sequence (Q920L2 35-656): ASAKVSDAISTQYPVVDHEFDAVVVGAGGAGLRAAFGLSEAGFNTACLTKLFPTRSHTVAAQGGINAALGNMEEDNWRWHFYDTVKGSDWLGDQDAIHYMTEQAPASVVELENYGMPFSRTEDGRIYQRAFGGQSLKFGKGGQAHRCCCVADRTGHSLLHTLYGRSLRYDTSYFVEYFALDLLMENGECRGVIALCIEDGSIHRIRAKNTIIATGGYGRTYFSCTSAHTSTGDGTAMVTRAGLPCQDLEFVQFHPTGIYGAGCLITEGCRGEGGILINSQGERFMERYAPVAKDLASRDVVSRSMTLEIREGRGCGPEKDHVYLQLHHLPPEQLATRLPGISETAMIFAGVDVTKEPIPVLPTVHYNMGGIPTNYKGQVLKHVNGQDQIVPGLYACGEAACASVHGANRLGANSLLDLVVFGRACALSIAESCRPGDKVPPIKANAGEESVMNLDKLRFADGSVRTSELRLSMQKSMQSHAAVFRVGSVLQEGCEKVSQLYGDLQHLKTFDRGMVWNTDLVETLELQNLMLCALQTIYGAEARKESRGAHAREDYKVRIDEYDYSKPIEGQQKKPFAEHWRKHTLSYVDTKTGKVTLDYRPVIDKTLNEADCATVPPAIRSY
T1 sequence (P21913 31-282): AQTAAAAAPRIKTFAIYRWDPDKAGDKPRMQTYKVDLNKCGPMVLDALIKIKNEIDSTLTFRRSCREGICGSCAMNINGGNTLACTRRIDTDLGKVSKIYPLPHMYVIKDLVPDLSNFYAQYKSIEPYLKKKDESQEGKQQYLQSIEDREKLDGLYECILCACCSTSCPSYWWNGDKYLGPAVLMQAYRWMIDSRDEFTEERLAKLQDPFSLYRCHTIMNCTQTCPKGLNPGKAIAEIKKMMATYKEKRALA
T1 sequence (Q641Z9 1-169): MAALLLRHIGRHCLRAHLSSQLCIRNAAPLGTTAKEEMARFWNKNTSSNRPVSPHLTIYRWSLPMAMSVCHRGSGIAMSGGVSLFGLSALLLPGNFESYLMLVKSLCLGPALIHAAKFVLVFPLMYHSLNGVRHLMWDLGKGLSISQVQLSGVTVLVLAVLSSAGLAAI
T1 sequence (Q6PCT8 57-159): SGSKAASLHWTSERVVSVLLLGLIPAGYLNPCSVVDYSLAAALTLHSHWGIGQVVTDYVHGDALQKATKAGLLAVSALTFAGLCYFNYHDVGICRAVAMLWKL
Method in brief: (§1)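 Absorbance kinetics: A340 (RCC I, V) and A600 (RCC II) read each minute over 6 min, A550 (RCC III, IV) every 10 s over 2 min; RCC I taken as […]. Particles (1 mg/ml) pretreated 15 min with compound; DMSO-treated activity = 1.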

RCC III = RCC III activity in submitochondrial particles; assay type: biochemical, rat; set-up: key to RCC III at 100XCmax: activity relative to DMSO-treated controls (control set as 1 = 100%); conditions: 100XCmax
Method in brief: as §1

RCC IV = RCC IV activity in submitochondrial particles; assay type: biochemical, rat; set-up: key to RCC IV at 50XCmax / RCC IV at 100XCmax: activity relative to DMSO-treated controls (control set as 1 = 100%); conditions: 50XCmax; DMSO treated samples set as 1; in %
Method in brief: as §1

RCC V = RCC V activity in submitochondrial particles; assay type: biochemical, rat; conditions: DMSO treated samples set as 1; on RCC V at 5XCmax: key: 0 indicates that the drug had no effects (negative)
Method in brief: as §1

[2] = test system: isolated rat liver mitochondria; assay: Mitochondrial inner membrane potential (MMP), Rhodamine 123; assay type: biochemical; conditions: difference in signal between KI and DMSO treated samples at the end of experiments
From the text: Fig. 3 KI effects on mitochondrial inner membrane potential (MMP). […] In a, c, data are means and standard derivations from three separate experiments. *p < 0.05 as compared to DMSO-treated samples at the end of experiments. In b, data are means of two independent experiments

[3] = test system: isolated rat liver mitochondria; conditions: positive control alamethicin treated samples
[4] = cited from earlier work
[5] = test system: isolated rat liver mitochondria; assay: Mitochondrial ROS production (CM-H2DCFDA); conditions: DMSO treated samples set as 1

Compound: O=C(c1ccc(F)c(F)c1Nc1ccc(I)cc1F)N1CC(O)([C@@H]2CCCCN2)C1 [Cobimetinib]
- State 3 respiration driven by glutamate/malate at 1XCmax ([1]; 1XCmax): 0
- State 3 respiration driven by succinate at 1XCmax ([1]; 1XCmax): 0
- State 4 respiration driven by glutamate/malate at 1XCmax ([1]; 1XCmax): 0
- State 4 respiration driven by succinate at 1XCmax ([1]; 1XCmax): 0
- State 3 respiration driven by glutamate/malate at 2.5XCmax ([1]; 2.5XCmax): 0
- State 3 respiration driven by succinate at 2.5XCmax ([1]; 2.5XCmax): 0
- State 4 respiration driven by glutamate/malate at 2.5XCmax ([1]; 2.5XCmax): 0
- State 4 respiration driven by succinate at 2.5XCmax ([1]; 2.5XCmax): 0
- State 3 respiration driven by glutamate/malate at 5XCmax ([1]; 5XCmax): 0
- State 3 respiration driven by succinate at 5XCmax ([1]; 5XCmax): 0
- State 4 respiration driven by glutamate/malate at 5XCmax ([1]; 5XCmax): 0
- State 4 respiration driven by succinate at 5XCmax ([1]; 5XCmax): 0
- State 3 respiration driven by glutamate/malate at 10XCmax ([1]; 10XCmax): 0
- State 3 respiration driven by succinate at 10XCmax ([1]; 10XCmax): 0
- State 4 respiration driven by glutamate/malate at 10XCmax ([1]; 10XCmax): 0
- State 4 respiration driven by succinate at 10XCmax ([1]; 10XCmax): 0
- State 3 respiration driven by glutamate/malate at 20XCmax ([1]; 20XCmax): 0
- State 3 respiration driven by succinate at 20XCmax ([1]; 20XCmax): 0
- State 4 respiration driven by glutamate/malate at 20XCmax ([1]; 20XCmax): 0
- State 4 respiration driven by succinate at 20XCmax ([1]; 20XCmax): 0
- State 3 respiration driven by glutamate/malate at 30XCmax ([1]; 30XCmax): 0
- State 3 respiration driven by succinate at 30XCmax ([1]; 30XCmax): 0
- State 4 respiration driven by glutamate/malate at 30XCmax ([1]; 30XCmax): 0
- State 4 respiration driven by succinate at 30XCmax ([1]; 30XCmax): 0
- State 3 respiration driven by glutamate/malate at 50XCmax ([1]; 50XCmax): 0
- State 3 respiration driven by succinate at 50XCmax ([1]; 50XCmax): 0
- State 4 respiration driven by glutamate/malate at 50XCmax ([1]; 50XCmax): 0
- State 4 respiration driven by succinate at 50XCmax ([1]; 50XCmax): 0
- State 3 respiration driven by glutamate/malate at 100XCmax ([1]; 100XCmax): 0
- State 3 respiration driven by succinate at 100XCmax ([1]; 100XCmax): 0
- State 4 respiration driven by glutamate/malate at 100XCmax ([1]; 100XCmax): 0
- State 4 respiration driven by succinate at 100XCmax ([1]; 100XCmax): 0
- RCC II at 1.0XCmax (RCC II; 1.0XCmax): 0
- RCC II at 2.5XCmax (RCC II; 2.5XCmax): 0
- RCC II at 5XCmax (RCC II; 5XCmax): 0
- RCC II at 10XCmax (RCC II; 10XCmax): 0
- RCC II at 20XCmax (RCC II; 20XCmax): 0
- RCC II at 30XCmax (RCC II; 30XCmax): 0
- RCC II at 50XCmax (RCC II; 50XCmax): 0
- RCC II at 100XCmax (RCC II; 100XCmax): 0
- RCC III at 100XCmax (RCC III): 0
- RCC IV at 50XCmax (RCC IV): 0
- RCC V at 5XCmax (RCC V; 5XCmax): 0
- RCC V at 50XCmax (RCC V; 50XCmax): 0
- MMP measured by Rhodamine 123 at 1XCmax ([2]; 1XCmax): 0
- MMP measured by Rhodamine 123 at 2.5XCmax ([2]; 2.5XCmax): 0
- MMP measured by Rhodamine 123 at 5XCmax ([2]; 5XCmax): 0
- MMP measured by Rhodamine 123 at 10XCmax ([2]; 10XCmax): 0
- MMP measured by Rhodamine 123 at 20XCmax ([2]; 20XCmax): 0
- MMP measured by Rhodamine 123 at 30XCmax ([2]; 30XCmax): 0
- MMP measured by Rhodamine 123 at 50XCmax ([2]; 50XCmax): 0
- MMP measured by Rhodamine 123 at 100XCmax ([2]; 100XCmax): 0
- Cytochrome c release 1XCmax ([3]; 1XCmax): 0
- Cytochrome c release 2.5XCmax ([3]; 2.5XCmax): 0
- Cytochrome c release 5XCmax ([3]; 5XCmax): 0
- Cytochrome c release 10XCmax ([3]; 10XCmax): 0
- Cytochrome c release 20XCmax ([3]; 20XCmax): 0
- Cytochrome c release 30XCmax ([3]; 30XCmax): 0
- Cytochrome c release 50XCmax ([3]; 50XCmax): 0
- Cytochrome c release 100XCmax ([3]; 100XCmax): 0
- DILI potential (based on labeling) ([4]; 1 DILI positive, 0 negative according to labeling, ref product labeling): 1
- Labeling for DILI ([4]; BBW: black box warning, W&P: Warnings and Precautions, ref product labeling): W&P: ALT↑
- labeling for DILI ([4]; W&P warnings and precautions, BBW black box warnings, ref FDA product labeling): W&P: ALT↑/monitoring
- DILI potential (based on labeling) ([4]; ref FDA product labeling): 1
- ROS measured by CM-H2DCFDA at 1XCmax ([5]; 1XCmax): 0
- ROS measured by CM-H2DCFDA at 2.5XCmax ([5]; 2.5XCmax): 0
- ROS measured by CM-H2DCFDA at 5XCmax ([5]; 5XCmax): 0
- ROS measured by CM-H2DCFDA at 10XCmax ([5]; 10XCmax): 0
- ROS measured by CM-H2DCFDA at 20XCmax ([5]; 20XCmax): 0
- ROS measured by CM-H2DCFDA at 30XCmax ([5]; 30XCmax): 0
- ROS measured by CM-H2DCFDA at 50XCmax ([5]; 50XCmax): 0
- ROS measured by CM-H2DCFDA at 100XCmax ([5]; 100XCmax): 0
